Patent US6991780B2, “Aluminum-zirconium antiperspirant salts with low M:CI ratio” (The Gillette Company, priority 2000, dated 2006)
“And” between values parts separate entries of the source, which are not always exact repeats. Equal entries are not always repeated.

Legend:
[1] = tested on: volunteer panelists (axilla); experiment: standard hot room thermal efficacy (sweat reduction), test product on one axilla vs control on the other; type: in vivo, human; details: for antiperspirant efficacy compared with conventional enhanced antiperspirant salt (EAZCH): in words, from Table 2 data
Text: The above-described enhanced efficacy salt may be tested for thermal efficacy (i.e. hot room sweat reduction) using volunteer panelists in a standard hot room protocol. The test product (vehicle plus enhanced efficacy salt) is applied to one axilla and control product (vehicle only or vehicle plus standard efficacy antiperspirant salt) is applied to the other axilla. The above-described enhanced efficacy salt typically provides a sweat reduction of about 57–62% versus about 47–52% obtained with standard efficacy salt, when suspended as an 18–19% USP active in a liquid volatile silicone carrier vehicle. Also, a freshly prepared aqueous solution of the above-described enhanced efficacy salt (20% USP active) typically provides a sweat reduction of about 63–69% versus about 48–54% obtained with standard efficacy salt in aqueous solution at the same concentration.
The above-described high peak 5 enhanced efficacy salts of Example 1 are tested for thermal efficacy (i.e. hot room sweat reduction) using volunteer panelists in a standard hot room protocol. The test product is applied to one axilla and control product is applied to the other axilla in an AvB comparison. In all cases, the test product comprises vehicle (as described below) plus high peak 5 enhanced efficacy salt (E^5AZCH). The control product comprises vehicle plus conventional enhanced efficacy (high peak 4:3) antiperspirant salt (EAZCH), except where the vehicle is a clear gel formulation, in which case a standard efficacy salt (AZCH) is used because of the instability of the conventional enhanced salt in aqueous formulations. To counteract this instability, the formulation identified as “Aqueous” below, is freshly prepared with powdered EAZCH just prior to being tested. The results are reported as the average sweat reduction (“S.R.”) gain over the control (i.e. the absolute percentage point increase in sweat reduction over the control).

[2] = HPLC aluminum peak distribution after storage (stability of enhanced state); type: physicochemical; details: aqueous solution
Experimental: Throughout the specification reference to HPLC analysis means that chromatograms are obtained as follows: Salt solutions are evaluated for aluminum polymer distribution by HPLC at a concentration of about 10% (USP) Al—Zr salt. If the solution to be analyzed is at a higher salt concentration, it is diluted with sufficient water to bring the salt concentration to about 10%. A 1.0 μL sample is injected into a Waters U6K injector, then pumped through a 4.6 mm×500 mm column packed with Nucleosil 100-5 silica with pore size of 100 angstroms and particle size of 5 μm (Keystone Scientific Inc.) using a 0.01M aqueous nitric acid solution as the eluant. The flow rate of the mobile phase is controlled at 0.5 mL/min with an LDC/Milton Roy Constametric-II metering pump (ThermoQuest Inc.). HPLC profiles are recorded and processed with a computerized system that includes the Millennium 32 Chromatography Manager software from Waters Corp. A Waters 2410 differential refractometer is used as the refractive index detector. The HPLC profiles are read from left to right (higher to lower molecular weight). Following this technique, peak 3 typically appears at a retention time of about 11.0–12.0 minutes (Kd≅0.58–0.61), peak 4 typically appears at a retention time of about 11.9–12.9 minutes (Kd≅0.62–0.72), and peak 5 typically appears at a retention time of about 13.3–14.0 minutes (Kd≅0.83–0.91). […]

[3] = aqueous solution, 20% USP active (enhanced salt freshly prepared)
[4] = suspended as 18–19% USP active in liquid volatile silicone carrier vehicle

Substance: aluminum-zirconium chlorohydrate [salt A]
- antiperspirant efficacy compared with conventional enhanced antiperspirant salt (EAZCH) ([1]; listed as A): more efficacious
- Avg. S.R. Gain Over Control ([1]; vehicle Roll-On (20.0% AP active), control EAZCH, listed as A): 5.8 percentage point

Substance: aluminum-zirconium chlorohydrate [salt C]
- retention of efficacy on storage ([1]; after storage of the clear gel at high temperature): maintains its high efficacy
- antiperspirant efficacy compared with current commercial clear gel product (standard efficacy salt) ([1]; formulated as clear gel): substantially more efficacious
- antiperspirant efficacy compared with conventional enhanced antiperspirant salt (EAZCH) ([1]; listed as C): more efficacious
- Avg. S.R. Gain Over Control ([1]; vehicle Aqueous (20% USP AP active), control EAZCH freshly prepared, listed as C): 4.2 percentage point
- Avg. S.R. Gain Over Control ([1]; vehicle Clear Gel (23.5% AP active), control AZCH): 15.9 percentage point
- Avg. S.R. Gain Over Control ([1]; vehicle Clear Gel aged 3 months at 45° C., control AZCH): 13.3 percentage point

Substance: aluminum-zirconium chlorohydrate [salt D]
- antiperspirant efficacy compared with conventional enhanced antiperspirant salt (EAZCH) ([1]; listed as D): more efficacious
- Avg. S.R. Gain Over Control ([1]; vehicle Aqueous (20% USP AP active), control EAZCH freshly prepared, listed as D): 5.9 percentage point and 4.6 percentage point
- Avg. S.R. Gain Over Control ([1]; vehicle Roll-On (20.0% AP active), control EAZCH, listed as D): 8.7 percentage point

Substance: aluminum-zirconium chlorohydrate [salt E]
- antiperspirant efficacy compared with conventional enhanced antiperspirant salt (EAZCH) ([1]; listed as E): just as efficacious
- Avg. S.R. Gain Over Control ([1]; vehicle Aqueous (20% USP AP active), control EAZCH freshly prepared, listed as E): 1.3 percentage point

Substance: aluminum-zirconium chlorohydrate [salt F]
- antiperspirant efficacy compared with conventional enhanced antiperspirant salt (EAZCH) ([1]; listed as F): more efficacious
- Avg. S.R. Gain Over Control ([1]; vehicle Aqueous (20% USP AP active), control EAZCH freshly prepared, listed as F): 4.5 percentage point
- Avg. S.R. Gain Over Control ([1]; vehicle Solid (23.5% AP active), control EAZCH, listed as F): 4.0 percentage point

Substance: aluminum-zirconium chlorohydrate [salt G]
- antiperspirant efficacy compared with conventional enhanced antiperspirant salt (EAZCH) ([1]; listed as G): just as efficacious
- Avg. S.R. Gain Over Control ([1]; vehicle Solid (23.5% AP active), control EAZCH, listed as G): 2.1 percentage point

Substance: aluminum-zirconium chlorohydrate [salt H]
- antiperspirant efficacy compared with conventional enhanced antiperspirant salt (EAZCH) ([1]; listed as H): just as efficacious
- Avg. S.R. Gain Over Control ([1]; vehicle Aqueous (20% USP AP active), control EAZCH freshly prepared, listed as H): 0.3 percentage point

Substance: aluminum-zirconium chlorohydrate [salt J]
- antiperspirant efficacy compared with conventional enhanced antiperspirant salt (EAZCH) ([1]; listed as J): more efficacious
- Avg. S.R. Gain Over Control ([1]; vehicle Aqueous (20% USP AP active), control EAZCH freshly prepared, listed as J): 4.3 percentage point

Substance: aluminum-zirconium chlorohydrate [salt K]
- antiperspirant efficacy compared with conventional enhanced antiperspirant salt (EAZCH) ([1]; listed as K): just as efficacious
- Avg. S.R. Gain Over Control ([1]; vehicle Aqueous (20% USP AP active), control EAZCH freshly prepared, listed as K): 1.7 percentage point

Substance: aluminum-zirconium chlorohydrate-gly [AZCH, reference compound]
- sweat reduction [1, 3]: 48–54%
- sweat reduction [1, 4]: 47–52%

Substance: aluminum-zirconium octachlorohydrate-gly [salt B]
- antiperspirant efficacy compared with conventional enhanced antiperspirant salt (EAZCH) [1]: more efficacious
- retention of efficacy on storage ([1]; stored as concentrated aqueous solution for 1.5 years): retains its superior efficacy
- Avg. S.R. Gain Over Control ([1]; vehicle Aqueous, aged 1.5 years, control EAZCH): 7.0 percentage point

Substance: aluminum-zirconium tetrachlorohydrate [EAZCH, reference compound]
- sweat reduction [1, 3]: 63–69%
- sweat reduction [1, 4]: 57–62%
- stability of enhanced state (peak 4:3 ratio) in aqueous form [2]: peak 4:3 ratio deteriorates very quickly
